Experimental data taken from article PMC8279414, “Discovery and Synthesis of a Pyrimidine-Based Aurora Kinase Inhibitor to Reduce Levels of MYC Oncoproteins” (Journal of Medicinal Chemistry, 2021).
Read-outs that look alike come from different tables or passages of the source.

Key:
[1] = target: T1, human Aurora A (amino acids 123–401) (Homo sapiens, UniProt O14965); experiment: In vitro inhibition of Aurora A kinase activity (Kinase-Glo Plus Luminescent Kinase assay, ATP consumption); format: biochemical; conditions: mean of 2–3 independent determinations ± SD; >100 = inhibition < 50% at 100 nM
T1 construct: N-terminal truncated human Aurora A (amino acids 123–401); GST; made in house; host or cells: Sf9 insect cells
T1 sequence (O14965 123-401): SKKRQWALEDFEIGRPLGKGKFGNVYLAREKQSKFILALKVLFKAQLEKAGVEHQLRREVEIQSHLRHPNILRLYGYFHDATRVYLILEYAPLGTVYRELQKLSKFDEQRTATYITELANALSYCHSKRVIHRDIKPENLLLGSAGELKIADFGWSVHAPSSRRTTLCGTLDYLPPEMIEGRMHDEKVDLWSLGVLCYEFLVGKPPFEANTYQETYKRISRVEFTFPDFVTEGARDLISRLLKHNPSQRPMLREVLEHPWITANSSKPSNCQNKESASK
Method: The inhibitory potency of the newly synthesized small molecules against Aurora A was first measured in ATP consumption assays using purified Aurora A protein.
The efficacy of the compounds as inhibitors of Aurora A kinase was assessed in vitro using the Kinase-Glo Plus Luminescent Kinase assay (Promega, USA), as described previously.[45] […] The resulting mixture was incubated at 25 °C for 20 min. A 70 μL aliquot of the mixture was transferred to a black microtiter plate.

cMYC in NCI-H82 = experiment: Western blot analysis of cMYC protein level in NCI-H82 cells; format: cell-based; conditions: for NCI-H82 cMYC, relative protein level: 1.0 μM of compound, mean ± SD, triplicate
Method: (§1) Cancer cells were treated with each of the compounds at different compound concentrations. […] Each lysate was separated by sodium dodecyl sulfate polyacrylamide gel electrophoresis (SDS-PAGE), transferred to polyvinylidene fluoride (PVDF, Millipore, USA) membrane, and blotted with antibodies. […] After the blotting (0.2% casein, 1% BSA, or 5% nonfat milk), membranes were washed with blotting buffer (0.2% casein in 1× PBS or 1× TBST), and corresponding alkaline phosphatase (AP)- or horseradish peroxidase (HRP)-conjugated secondary antibodies (Sigma-Aldrich) were added. The blots were developed by chemiluminescence (PerkinElmer, USA).

MYCN in SK-N-BE(2) = experiment: Western blot analysis of MYCN protein level in SK-N-BE(2) cells; format: cell-based; conditions: for SK-N-BE(2) MYCN, relative protein level: 1.0 μM of compound, mean ± SD, triplicate
Method: as §1

NCI-H146 = experiment: Cell proliferation inhibition assay (PrestoBlue); format: cell-based; conditions: NCI-H146 (MYC-unamplified), read-out: Compound 13 IC50 (half-proliferation inhibition concentration)
Description: (§2) SCLC is an aggressive malignancy that accounts for around 10–15% of all lung cancers, for which no targeted therapy is currently available.[29],[30] SCLC cells are characterized by rapid proliferation, universal RB1 and TP53 inactivation, and high rates of MYC-family amplification.[31] A recent study of MYC amplification in 77 formalin-fixed paraffin-embedded SCLC tumor samples using chromogenic in situ hybridization identified amplification of the MYC-family oncogenes in 20% of the tumors.[32],[33] Thus, we evaluated the growth-inhibitory effects of 13 on nine different SCLC cell lines: five with cMYC amplification, one with MYCN amplification, one with MYCL amplification, and two with no MYC-family amplification.
(§3) The efficacy of the compounds as inhibitors of cancer cell proliferation was assessed using PrestoBlue Cell Viability Reagent (ThermoFisher Scientific, USA). Cells were seeded at a density of 5000–10,000 cells per well in 96-well plates. After 24 h, cells were treated with each compound at various concentrations (0–10 μM). IC50 values were computed based on a triplicate, eight-point titration. After 72 h of drug treatment, 10 μL of PrestoBlue Cell Viability Reagent was added to each well, and fluorescence signals were collected using a Wallac Vector 1420 multilabel counter (PerkinElmer, USA).

NCI-H211 = experiment: Cell proliferation inhibition assay (PrestoBlue); format: cell-based; conditions: Homo sapiens, NCI-H211, 72 h; read-out: Compound 13 IC50 (half-proliferation inhibition concentration)
Description: as §2, §3

NCI-H2171 = experiment: Cell proliferation inhibition assay (PrestoBlue); format: cell-based; conditions: Homo sapiens, NCI-H2171, 72 h; read-out: Compound 13 IC50 (half-proliferation inhibition concentration)
Description: as §2, §3

NCI-H446 = experiment: Cell proliferation inhibition assay (PrestoBlue); format: cell-based; conditions: Homo sapiens, NCI-H446, 72 h; read-out: Compound 13 IC50 (half-proliferation inhibition concentration)
Description: as §2, §3

NCI-H524 = experiment: Cell proliferation inhibition assay (PrestoBlue); format: cell-based; conditions: Homo sapiens, NCI-H524, 72 h; read-out: Compound 13 IC50 (half-proliferation inhibition concentration)
Description: as §2, §3

NCI-H82 = experiment: Cell proliferation inhibition assay (PrestoBlue); format: cell-based; conditions: Homo sapiens, NCI-H82, 72 h; read-out: Compound 13 IC50 (half-proliferation inhibition concentration)
Description: as §2, §3

[2] = test system: high-MYC expressing small-cell lung cancer (SCLC) cell lines; experiment: Cell proliferation inhibition assay, cell lines not named singly; format: cell-based; conditions: high-MYC expressing / cMYC-amplified SCLC cell lines, 72 h
Description: as §2, §3

[3] = test system: NCI-H446 xenograft tumors; experiment: In vivo xenograft tumor growth inhibition; parameters: species or system mice; conditions: for anticancer activity in NCI-H446 xenograft tumor model: oral administration, 5-on-2-off regimen
Method: (§4) Male athymic nu/nu nude mice (BioLASCO, Taiwan) 6 weeks old were housed in sterile cages maintained under 12 h light/dark cycles with controlled temperature and humidity. Mice were inoculated subcutaneously with 1 × 10^6 NCI–H446 cells (ATCC@ HTB-171) resuspended in saline mixed with 50% Matrigel matrix (Corning, USA). The sizes of the xenografted tumors were measured by a digital caliper (GMC-190; Goldsun Electronics Co.) and calculated using the formula: tumor volume (mm^3) = length × (width)2/2. Body weight and tumor size were measured at least twice a week. When the xenograft tumor reached ≥200 mm^3 in size, mice were intravenous or orally administered with the vehicle (5% dimethylacetamide/95% PEG400) or the compounds on a 5-on-2-off dosing regimen for 2–4 weeks. Tumor growth was analyzed for a statistically significant difference using ANOVA, followed by the Student–Newman–Keuls test. P < 0.05 was considered a significant difference between groups.

[4] = Body weight of xenograft mice during treatment; format: in vivo
Method: as §4

[5] = test system: cMYC in NCI-H446 xenograft tumors; experiment: In vivo target validation: cMYC protein level in tumors (western blot); parameters: species or system mice; conditions: single oral dose 100 mg/kg
Method: (§5) Tumors were harvested after 2, 4, 8, and 24 h of the treatment, respectively (Figure 4A). Whole tumor tissues were collected for western blotting and immunohistochemistry (IHC) analyses. […] The western blot result of phosphorylated Aurora A/B/C was not provided due to the inability of detecting the signal in the tumor tissues.
(§6) The efficacy of a compound in reducing the MYC protein level and in inducing cell apoptosis was assessed using an NCI-H446 xenograft tumorigenicity mouse model. Six-week-old male athymic nu/nu nude mice (BioLASCO, Taiwan) were inoculated subcutaneously with 1 × 10^6 NCI-H446 cells resuspended in saline mixed with 50% Matrigel matrix (Corning, USA). […] Tumors were harvested after 2, 4, 8, and 24 h of drug treatment, respectively. Half of the tumor was cryopreserved and then subjected to western analysis; the other half was fixed in 10% formalin and then embedded in paraffin. For immunohistochemistry, tissue paraffin sections were deparaffinized using xylene and ethanol. After rehydration, antigen retrieval was achieved by placing the slides in 100 °C citrate buffer, pH 6.0 for 1 h. Endogenous peroxides were quenched by 0.5% H2O2 for 10 min. Slides were blocked with 3% BSA for 30 min and then incubated with a rabbit anticleaved Caspase-3 antibody (Cell signaling, 9661S) at room temperature for 1.5 h. After three washes with 1× PBS, a goat antirabbit HRP-polymer (Biocare Medical, USA) was added, followed by development of the color using 3,3′-diaminobenzidine substrate chromogen (Biocare Medical, USA). The nucleus was stained with hematoxylin.

[6] = test system: pH3(Ser10) in NCI-H446 xenograft tumors; experiment: In vivo target validation: phosphorylation of histone H3 at Ser10 in tumors (western blot); parameters: species or system mice; conditions: single oral dose 100 mg/kg, 2 h after drug administration
Method: as §5
as §6, with “After three washes with 1× PBS, a goat antirabbit HRP-polymer (Biocare Medical, USA) was added, followed by development of the color using 3,3′-diaminobenzidine substrate chromogen (Biocare Medical, USA). The nucleus was stained with hematoxylin.” left out

[7] = test system: cleaved PARP-1 (cPARP-1) in NCI-H446 xenograft tumors; experiment: In vivo target validation: cleaved PARP-1 in tumors (western blot); parameters: species or system mice; conditions: single oral dose 100 mg/kg, after 24 h
Method: (§7) Apoptosis was assessed using levels of PARP-1, one of several known cellular substrates of caspases; cleavage of PARP-1 by caspases is considered a hallmark of apoptosis.[44]
as §6, with “The nucleus was stained with hematoxylin.” left out

[8] = test system: cleaved Caspase-3 (CASP3) in NCI-H446 xenograft tumors; experiment: In vivo target validation: cleaved Caspase-3 immunohistochemistry; parameters: species or system mice; conditions: single oral dose 100 mg/kg
Method: as §7
as §6, with “The nucleus was stained with hematoxylin.” left out

[9] = PO, 5-on-2-off, after end of dosing

Compound: CCN1CCN(c2cc(Nc3cc(C)[nH]n3)nc(N[C@H]3CCN(C(=O)c4ccc(Cl)cc4F)C3)n2)CC1 [Compound 13, (S)-(4-Chloro-2-fluorophenyl) (3-((4-(4-ethylpiperazin-1-yl)-6-((5-methyl-1H-pyrazol-3-yl)amino)pyrimidin-2-yl)amino)pyrrolidin-1-yl)methanone]
- IC50 [1]: 38.6 ± 7 nM
- reduction of cMYC level (cMYC in NCI-H82; 1.0 μM): > 50%
- NCI-H82 cMYC, relative protein level (cMYC in NCI-H82; 24 h): 0.475 ± 0.023
- effect on cMYC protein level in NCI-H82 (cMYC in NCI-H82; various concentrations, 24 h): dose-dependent loss
- reduction of MYCN level (MYCN in SK-N-BE(2); 1.0 μM): > 50%
- SK-N-BE(2) MYCN, relative protein level (MYCN in SK-N-BE(2); 24 h): 0.487 ± 0.066
- effect on MYCN protein level in SK-N-BE(2) (MYCN in SK-N-BE(2); various concentrations, 24 h): dose-dependent loss
- IC50 (NCI-H146; Homo sapiens, NCI-H146, 72 h): 1180 nM
- IC50 (NCI-H146; 72 h): > 1000 nM
- IC50 (NCI-H211): 105 nM
- IC50 (NCI-H2171): 27.1 nM
- IC50 (NCI-H446): 120 nM
- IC50 (NCI-H524): 3.36 nM
- IC50 (NCI-H82): 51.7 nM
- IC50 [2]: < 200 nM
- tumor growth inhibition ([3]; IV 50 mg/kg, 5-on-2-off dosing schedule, two weeks, nude mice): > 90%
- body weight change ([4]; IV 50 mg/kg, 5-on-2-off, during the treatment): less than 5%

Compound: CCN1CCN(c2cc(Nc3cc(C)[nH]n3)nc(N[C@H]3CCN(C(=O)c4cc(F)c(Cl)cc4F)C3)n2)CC1 [Compound 16, (S)-(4-Chloro-2,5-difluorophenyl) (3-((4-(4-ethylpiperazin-1-yl)-6-((5-methyl-1H-pyrazol-3-yl)amino)pyrimidin-2-yl)amino)pyrrolidin-1-yl)methanone]
- IC50 [1]: 50.9 ± 2.3 nM
- NCI-H82 cMYC, relative protein level (cMYC in NCI-H82; 24 h): 0.834 ± 0.121
- SK-N-BE(2) MYCN, relative protein level (MYCN in SK-N-BE(2); 24 h): 0.792 ± 0.170

Compound: CCN1CCN(c2cc(Nc3cc(C)[nH]n3)nc(N[C@H]3CCN(C(=O)c4ccc(Cl)c(F)c4F)C3)n2)CC1 [Compound 17, (S)-(4-Chloro-2,3-difluorophenyl) (3-((4-(4-ethylpiperazin-1-yl)-6-((5-methyl-1H-pyrazol-3-yl)amino)pyrimidin-2-yl)amino)pyrrolidin-1-yl)methanone]
- IC50 [1]: 64.9 ± 13.7 nM
- NCI-H82 cMYC, relative protein level (cMYC in NCI-H82; 24 h): 0.744 ± 0.124
- SK-N-BE(2) MYCN, relative protein level (MYCN in SK-N-BE(2); 24 h): 0.541 ± 0.068

Compound: CCOC(=O)n1nc(C)cc1Nc1cc(N2CCN(CC)CC2)nc(N[C@H]2CCN(C(=O)c3ccc(Cl)cc3F)C2)n1 [Compound 22, Ethyl (S)-5-((2-((1-(4-chloro-2-fluorobenzoyl)pyrrolidin-3-yl)amino)-6-(4-ethylpiperazin-1-yl)pyrimidin-4-yl)amino)-3-methyl-1H-pyrazole-1-carboxylate]
- anticancer activity in NCI-H446 xenograft tumor model [3]: dose-dependent anticancer activity

Compound: CCC(=O)n1nc(C)cc1Nc1cc(N2CCN(CC)CC2)nc(N[C@H]2CCN(C(=O)c3ccc(Cl)cc3F)C2)n1 [Compound 25, (S)-1-(5-((2-((1-(4-Chloro-2-fluorobenzoyl)pyrrolidin-3-yl)amino)-6-(4-ethylpiperazin-1-yl)pyrimidin-4-yl)amino)-3-methyl-1H-pyrazol-1-yl)propan-1-one]
- shrinkage of tumors with volume >750 mm^3 ([3]; PO 100 mg/kg, 5-on-2-off, 2 weeks): great potency to shrink tumors
- tumor volume regression ([3]; PO 100 mg/kg, 5-on-2-off, four consecutive weeks): > 80%
- xenografted tumors remained stable after the last dosage [3, 9]: 44 days
- anticancer activity in NCI-H446 xenograft tumor model [3]: dose-dependent anticancer activity
- body weight change ([4]; PO 100 mg/kg, 4-week dosing period): less than 5%
- cMYC protein level relative to vehicle-treated tumors ([5]; 24 h after dosing): around 37%
- relative cMYC protein level in tumors ([5]; 24 h post-treatment, vehicle 1.0 ± 0.230): 0.374 ± 0.204
- reduction of phosphorylation level of histone H3 at Ser10 [6]: > 90%
- cleaved PARP-1 (cPARP-1) levels in tumor tissues [7]: significantly upregulated
- incidence of cleaved Caspase-3 (CASP3), IHC [8]: greatly increased

Compound: COc1cc(Nc2ncc3c(n2)-c2ccc(Cl)cc2C(c2c(F)cccc2OC)=NC3)ccc1C(=O)O [MLN8237, reference compound]
- tumors started to grow, day after the last dosage [3, 9]: 22 days
- effect on the cMYC level in tumors ([5]; 2–24 h): marginal effect
- reduction of phosphorylation level of histone H3 at Ser10 [6]: > 90%
- cleaved PARP-1 (cPARP-1) levels in tumor tissues [7]: significantly upregulated
